Source: ChEMBL document CHEMBL4837183, “Antiproliferative Bufadienolides from the Bulbs of Drimia altissima” (2021)

Experiments:
Type in all cases: functional
SF-268 = assay: Growth inhibition of human SF-268 cells measured after 48 hrs by SRB assay
SF-295 = assay: Growth inhibition of human SF-295 cells measured after 48 hrs by SRB assay
SF-539 = assay: Growth inhibition of human SF-539 cells measured after 48 hrs by SRB assay
SNB-19 = assay: Growth inhibition of human SNB-19 cells measured after 48 hrs by SRB assay
SNB-75 = assay: Growth inhibition of human SNB-75 cells measured after 48 hrs by SRB assay
U-251 = assay: Growth inhibition of human U-251 cells measured after 48 hrs by SRB assay
A549 = assay: Growth inhibition of human A549 cells measured after 48 hrs by SRB assay
HOP-62 = assay: Growth inhibition of human HOP-62 cells measured after 48 hrs by SRB assay
HOP-92 = assay: Growth inhibition of human HOP-92 cells measured after 48 hrs by SRB assay
NCI-H226 = assay: Growth inhibition of human NCI-H226 cells measured after 48 hrs by SRB assay
NCI-H23 = assay: Growth inhibition of human NCI-H23 cells measured after 48 hrs by SRB assay
NCI-H322M = assay: Growth inhibition of human NCI-H322M cells measured after 48 hrs by SRB assay
NCI-H460 = assay: Growth inhibition of human NCI-H460 cells measured after 48 hrs by SRB assay
NCI-H522 = assay: Growth inhibition of human NCI-H522 cells measured after 48 hrs by SRB assay
PC-3 = assay: Growth inhibition of human PC-3 cells measured after 48 hrs by SRB assay
DU-145 = assay: Growth inhibition of human DU-145 cells measured after 48 hrs by SRB assay
IGROV-1 = assay: Growth inhibition of human IGROV-1 cells measured after 48 hrs by SRB assay
OVCAR-3 = assay: Growth inhibition of human OVCAR-3 cells measured after 48 hrs by SRB assay
OVCAR-5 = assay: Growth inhibition of human OVCAR-5 cells measured after 48 hrs by SRB assay
OVCAR-8 = assay: Growth inhibition of human OVCAR-8 cells measured after 48 hrs by SRB assay
NCI/ADR-RES = assay: Growth inhibition of human NCI/ADR-RES cells measured after 48 hrs by SRB assay
SK-OV-3 = assay: Growth inhibition of human SK-OV-3 cells measured after 48 hrs by SRB assay
786-0 = assay: Growth inhibition of human 786-0 cells measured after 48 hrs by SRB assay
A498 = assay: Growth inhibition of human A498 cells measured after 48 hrs by SRB assay
ACHN = assay: Growth inhibition of human ACHN cells measured after 48 hrs by SRB assay
CAKI-1 = assay: Growth inhibition of human CAKI-1 cells measured after 48 hrs by SRB assay
RXF 393 = assay: Growth inhibition of human RXF 393 cells measured after 48 hrs by SRB assay
SN12C = assay: Growth inhibition of human SN12C cells measured after 48 hrs by SRB assay
TK-10 = assay: Growth inhibition of human TK-10 cells measured after 48 hrs by SRB assay
UO-31 = assay: Growth inhibition of human UO-31 cells measured after 48 hrs by SRB assay
CCRF-CEM = assay: Growth inhibition of human CCRF-CEM cells measured after 48 hrs by SRB assay
HL-60 = assay: Growth inhibition of human HL-60 cells measured after 48 hrs by SRB assay
K562 = assay: Growth inhibition of human K562 cells measured after 48 hrs by SRB assay
MOLT-4 = assay: Growth inhibition of human MOLT-4 cells measured after 48 hrs by SRB assay
SR = assay: Growth inhibition of human SR cells measured after 48 hrs by SRB assay
COLO 205 = assay: Growth inhibition of human COLO 205 cells measured after 48 hrs by SRB assay
HCC 2998 = assay: Growth inhibition of human HCC 2998 cells measured after 48 hrs by SRB assay
HCT-116 = assay: Growth inhibition of human HCT-116 cells measured after 48 hrs by SRB assay
HCT-15 = assay: Growth inhibition of human HCT-15 cells measured after 48 hrs by SRB assay
HT-29 = assay: Growth inhibition of human HT-29 cells measured after 48 hrs by SRB assay
KM12 = assay: Growth inhibition of human KM12 cells measured after 48 hrs by SRB assay
SW-620 = assay: Growth inhibition of human SW-620 cells measured after 48 hrs by SRB assay
LOX IMVI = assay: Growth inhibition of human LOX IMVI cells measured after 48 hrs by SRB assay
Malme-3M = assay: Growth inhibition of human Malme-3M cells measured after 48 hrs by SRB assay
M14 = assay: Growth inhibition of human M14 cells measured after 48 hrs by SRB assay
MDA-MB-435 = assay: Growth inhibition of human MDA-MB-435 cells measured after 48 hrs by SRB assay
SK-MEL-2 = assay: Growth inhibition of human SK-MEL-2 cells measured after 48 hrs by SRB assay
SK-MEL-28 = assay: Growth inhibition of human SK-MEL-28 cells measured after 48 hrs by SRB assay
SK-MEL-5 = assay: Growth inhibition of human SK-MEL-5 cells measured after 48 hrs by SRB assay
UACC-257 = assay: Growth inhibition of human UACC-257 cells measured after 48 hrs by SRB assay
UACC-62 = assay: Growth inhibition of human UACC-62 cells measured after 48 hrs by SRB assay
MCF7 = assay: Growth inhibition of human MCF7 cells measured after 48 hrs by SRB assay
MDA-MB-231 = assay: Growth inhibition of human MDA-MB-231 cells measured after 48 hrs by SRB assay
Hs-578T = assay: Growth inhibition of human Hs-578T cells measured after 48 hrs by SRB assay
BT-549 = assay: Growth inhibition of human BT-549 cells measured after 48 hrs by SRB assay
T47D = assay: Growth inhibition of human T47D cells measured after 48 hrs by SRB assay
MDA-MB-468 = assay: Growth inhibition of human MDA-MB-468 cells measured after 48 hrs by SRB assay
RPMI-8226 = assay: Growth inhibition of human RPMI-8226 cells measured after 48 hrs by SRB assay

CCO[C@@H]1C=C2CC[C@@H]3[C@H]([C@@H](O)C[C@]4(C)[C@@H](c5ccc(=O)oc5)CC[C@]34O)[C@@]2(C)CC1
GI50 (SF-268): 58 nM | GI50 (SF-295): 61 nM | GI50 (SF-539): 66 nM | GI50 (SNB-19): 347 nM | GI50 (SNB-75): 187 nM | GI50 (U-251): 151 nM | GI50 (A549): 40 nM | GI50 (HOP-62): 56 nM | GI50 (HOP-92): 153 nM | GI50 (NCI-H226): 181 nM | GI50 (NCI-H23): 86 nM | GI50 (NCI-H322M): 121 nM | GI50 (NCI-H460): 39 nM | GI50 (NCI-H522): 35 nM | GI50 (PC-3): 145 nM | GI50 (DU-145): 52 nM | GI50 (IGROV-1): 138 nM | GI50 (OVCAR-3): 59 nM | GI50 (OVCAR-5): 280 nM | GI50 (OVCAR-8): 165 nM | GI50 (NCI/ADR-RES): 91 nM | GI50 (SK-OV-3): 338 nM | GI50 (786-0): 71 nM | GI50 (A498): 39 nM | GI50 (ACHN): 37 nM | GI50 (CAKI-1): 57 nM | GI50 (RXF 393): 25 nM | GI50 (SN12C): 46 nM | GI50 (TK-10): 94 nM | GI50 (UO-31): 54 nM | GI50 (CCRF-CEM): 54 nM | GI50 (HL-60): 120 nM | GI50 (K562): 129 nM | GI50 (MOLT-4): 42 nM | GI50 (SR): 124 nM | GI50 (COLO 205): 401 nM | GI50 (HCC 2998): 537 nM | GI50 (HCT-116): 39 nM | GI50 (HCT-15): 86 nM | GI50 (HT-29): 78 nM | GI50 (KM12): 349 nM | GI50 (SW-620): 63 nM | GI50 (LOX IMVI): 137 nM | GI50 (Malme-3M): 145 nM | GI50 (M14): 232 nM | GI50 (MDA-MB-435): 178 nM | GI50 (SK-MEL-2): 234 nM | GI50 (SK-MEL-28): 296 nM | GI50 (SK-MEL-5): 72 nM | GI50 (UACC-257): 268 nM | GI50 (UACC-62): 145 nM | GI50 (MCF7): 55 nM | GI50 (MDA-MB-231): 588 nM | GI50 (Hs-578T): 44 nM | GI50 (BT-549): 56 nM | GI50 (T47D): 255 nM | GI50 (MDA-MB-468): 501 nM

C[C@]12CC[C@@H](O)C=C1CC[C@@H]1[C@@H]2[C@@H](O)C[C@]2(C)[C@@H](c3ccc(=O)oc3)CC[C@]12O
GI50 (SF-268): 656 nM | GI50 (SF-295): 1750 nM | GI50 (SF-539): 1490 nM | GI50 (SNB-19): 4970 nM | GI50 (SNB-75): 2170 nM | GI50 (A549): 649 nM | GI50 (HOP-62): 1550 nM | GI50 (HOP-92): 2100 nM | GI50 (NCI-H226): 7560 nM | GI50 (NCI-H23): 2230 nM | GI50 (NCI-H322M): 2880 nM | GI50 (NCI-H460): 573 nM | GI50 (NCI-H522): 639 nM | GI50 (PC-3): 1880 nM | GI50 (DU-145): 760 nM | GI50 (IGROV-1): 3690 nM | GI50 (OVCAR-3): 739 nM | GI50 (OVCAR-5): 2840 nM | GI50 (OVCAR-8): 2110 nM | GI50 (NCI/ADR-RES): 2230 nM | GI50 (SK-OV-3): 4240 nM | GI50 (786-0): 998 nM | GI50 (A498): 1770 nM | GI50 (ACHN): 475 nM | GI50 (CAKI-1): 2470 nM | GI50 (RXF 393): 412 nM | GI50 (SN12C): 1070 nM | GI50 (TK-10): 2980 nM | GI50 (UO-31): 2150 nM | GI50 (CCRF-CEM): 502 nM | GI50 (HL-60): 273 nM | GI50 (K562): 644 nM | GI50 (MOLT-4): 303 nM | GI50 (SR): 189 nM | GI50 (RPMI-8226): 2540 nM | GI50 (COLO 205): 6050 nM | GI50 (HCC 2998): 7850 nM | GI50 (HCT-116): 532 nM | GI50 (HCT-15): 4110 nM | GI50 (KM12): 5000 nM | GI50 (SW-620): 1690 nM | GI50 (LOX IMVI): 3690 nM | GI50 (Malme-3M): 4350 nM | GI50 (M14): 3380 nM | GI50 (MDA-MB-435): 3350 nM | GI50 (SK-MEL-2): 3060 nM | GI50 (SK-MEL-28): 3470 nM | GI50 (SK-MEL-5): 3030 nM | GI50 (UACC-257): 3450 nM | GI50 (UACC-62): 3310 nM | GI50 (MCF7): 3530 nM | GI50 (MDA-MB-231): 8500 nM | GI50 (Hs-578T): 831 nM | GI50 (BT-549): 658 nM | GI50 (T47D): 4710 nM | GI50 (MDA-MB-468): 10200 nM
